Measurements: patent US20090068243A1, “Novel formulations for delivery of antiviral peptide therapeutics” (priority 2007, published 2009)

Legend:
[1] = Thermal stability (Tm) by CD signal at 222 nm; format: physicochemical; conditions: CD at 222 nm, maximum of first derivative of thermal transition
Experimental: (§1) Assessment of biophysical parameters included measurement of helicity and thermal stability. Helicity was assessed by circular dichroism (“CD”) as follows. Briefly, CD spectra were obtained using a spectrometer equipped with a thermoelectric temperature controller. The spectra was obtained at 25° C. with 0.5 nanometer (nm) steps from 200 to 260 nm, with a 1.5 nm bandwith, and a typical averaging time of 4 seconds/step. After the cell/buffer blank was subtracted, spectra were smoothed using a third-order least-squares polynomial fit with a conservative window size to give random residuals. Raw ellipticity values were converted to mean residue ellipticity using standard methods, and plotted was the wavelength (from 200 to 260 nm) versus [θ]×10−3 (degrees cm^2/dmol). Percent helicity values were then calculated using standard methods (usually expressed as percent helicity at 10 μM, 25° C.). Assessment of thermal stability was performed by monitoring the change in CD signal at 222 nm as temperature was raised in 2° C. steps, with 1 minute equilibration times. The stability for each sample (e.g., HIV fusion inhibitor peptide), as represented by the Tm value, is the temperature corresponding to the maximum value of the first derivative of the thermal transition.

[2] = Helicity by circular dichroism (CD); format: physicochemical; conditions: usually percent helicity at 10 μM, 25° C.
Experimental: as §1

HIV-Res = format: cell-based, HIV-1; conditions: resistant viral isolate "Res"
Source text: Assessment of biological properties included measurement of antiviral activity against HIV-1 strains. In determining antiviral activity (e.g., one measure being the ability to inhibit transmission of HIV to a target cell) of the HIV fusion inhibitor peptides, an in vitro assay which has been shown, by data generated using peptides derived from the HR regions of HIV gp41, to be predictive of antiviral activity observed in vivo was used. […] These assays score for reduction of infectious virus titer employing the indicator cell lines MAGI or the CCR5 expressing derivative cMAGI. Both cell lines exploit the ability of HIV-1 tat to transactivate the expression of a β-galactosidase reporter gene driven by the HIV-LTR. The β-gal reporter has been modified to localize in the nucleus and can be detected with the X-gal substrate as intense nuclear staining within a few days of infection. […] The number of infected cells for each control and peptide dilution was determined with the CCD-imager, and then the IC50 was calculated (expressed in μg/ml).
Viruses resistant to the antiviral activity of a peptide consisting of a base sequence can be produced using standard laboratory methods. […] The cultures are maintained and monitored until syncytia are present. […] The second round of culture is maintained and monitored for presence of virus resistant to the antiviral activity of the peptide. […]

In the case of “Ac-TTWEAWDRAIAEYAARIEALLRALQEQQEKNEAALREL-NH2 [SEQ ID NO:9, TTWEAWDRAIAEYAARIEALLRALQEQQEKNEAALREL]”, the “Tm (° C.)” value [1] was 62 °C, the “Helicity (%)” value [2] was 61% and the “Antiviral Activity (μg/ml) HIV-Res IC50” value (HIV-Res) was less than 0.10 µg/mL.
